From patent US8206722B2, “Somatostatin receptor antagonists and glucose control or hypoglycemia” (The Governing Council of the University of Toronto, priority 2007, dated 2012)

Tests used:
SSTR-2 = SSTR-2 (Homo sapiens, UniProt P30874); details: antagonist at SSTR-2, cited from earlier work
isolated islets = isolated islets and perifused isolated islets; reversed dose-dependently by added somatostatin; cited from earlier work
non-diabetic rats = details: cited from earlier work
[1] = test system: non-diabetic and STZ-diabetic rats; test: Insulin-induced hypoglycemic glucose clamp with SSTR antagonist infusion in non-diabetic and STZ-diabetic rats; format: in vivo, rat
Method: FIG. 1 indicates levels of plasma glucose levels in four groups of rats during the 1-h SSTR antagonist/saline pretreatment and 3-h hypoglycemic clamp experiment. […] A similar glycemic profile is observed in FIG. 1B when another dose of insulin and SSTR antagonist (DC-41-33) were tested (5 U/kg and 3000 nmol/kg/h, respectively).
Non-diabetic and STZ-diabetic rats were injected with insulin (10 U/kg and 5 U/kg). These doses yielded reproducible responses of plasma glucose (FIG. 1). In diabetic rats, plasma glucose is elevated approximately 3- to 4-fold before hypoglycemia is induced. A subcutaneous injection of insulin was given immediately after the sample was taken at time 0 in all groups of rats to induce hypoglycemia. Plasma glucose levels dropped to the same target hypoglycemia (2.75±0.25 mM) in both non-diabetic and diabetic rats. […] This technique of glucose clamping is a well-established method in diabetes research which allows precise comparison between different groups at a specific glycemic level.
This technique is referred to as the “glucose clamp” and is achieved by intravenously infusing glucose whenever necessary.

[2] = test system: isolated, perfused pancreas; details: perfused pancreas of non-diabetic rats; cited from earlier work

Chain of SSTR-2 (P30874 whole entry, species assumed, the tested form may be a part): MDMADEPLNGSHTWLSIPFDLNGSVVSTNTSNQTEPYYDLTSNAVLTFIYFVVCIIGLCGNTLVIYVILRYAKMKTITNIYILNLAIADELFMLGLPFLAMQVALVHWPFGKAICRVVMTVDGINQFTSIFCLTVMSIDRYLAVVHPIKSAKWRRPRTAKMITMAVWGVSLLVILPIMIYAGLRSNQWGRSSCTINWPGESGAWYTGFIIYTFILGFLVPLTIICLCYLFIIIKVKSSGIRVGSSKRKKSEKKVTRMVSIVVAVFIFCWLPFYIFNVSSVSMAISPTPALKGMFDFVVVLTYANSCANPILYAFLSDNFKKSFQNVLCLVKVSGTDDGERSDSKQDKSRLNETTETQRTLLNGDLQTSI

Substance: H-Cpa-cyclo[Cys-Pal-DTrp-Lys-Ile-Cys]-Nal-NH2 [PRL-2915]
- Affinity (nM), Units pKi (SSTR-2): 7.9 pKi

Substance: H-Cpa-cyclo[DCys-Tyr-DTrp-Lys-Thr-Cys]-Nal-NH2 (XCYWKTCX; Cpa, Nal, D-residues, cyclic disulfide, C-terminal amide; Synthetic - PRL-2970)
- Affinity (nM), Units pKi (SSTR-2): 7.6 pKi

Substance: H-Fpa-cyclo[DCys-Pal-DTrp-Lys-Tle-Cys]-Nal-NH2 [DC-41-33]
- glucagon secretion to an arginine stimulus (isolated islets): dose-dependently increases glucagon secretion
- reversal of inhibition by GIP, GIP-(1-30)NH2 and GLP-1(7-36)NH2 of pentagastrin-stimulated gastric acid secretion (non-diabetic rats): able to reverse the inhibitory effect
- IC50 (SSTR-2; Units column prints pIC50, read-out: Affinity (nM), Units pIC50 (converted)): 27.4 nM
- plasma epinephrine levels during basal infusion of antagonist ([1]; basal infusion before insulin, antagonist 1500 nmol/kg/h, FIG. 7): did not affect plasma epinephrine levels
- growth hormone (GH) levels ([1]; diabetic rats, regardless of hypoglycemia, insulin 5 U/kg, antagonist 3000 nmol/kg/h, FIG. 9): did not affect GH levels
- peak glucagon response to hypoglycemia, increase ([1]; diabetic rats, insulin 5 U/kg, antagonist 3000 nmol/kg/h, FIG. 3): ~7 fold
- corticosterone response to hypoglycemia ([1]; diabetic rats, insulin 5 U/kg, antagonist 3000 nmol/kg/h, FIG. 5): fully normalized
- plasma glucagon before insulin and throughout hypoglycemia ([1]; diabetic rats, insulin 10 U/kg, antagonist 1500 nmol/kg/h, FIG. 2): glucagon was increased
- increase in plasma epinephrine levels (AUC) in response to hypoglycemia ([1]; diabetic rats, insulin 10 U/kg, antagonist 1500 nmol/kg/h, FIG. 7): 4 fold
- plasma norepinephrine during basal infusion and insulin-induced hypoglycemia ([1]; insulin 10 U/kg, antagonist 1500 nmol/kg/h, FIG. 8): no effect
- glucose infusion requirement during 3 h hypoglycemic clamp ([1]; non-diabetic and diabetic rats versus untreated controls, insulin 5 U/kg, antagonist 3000 nmol/kg/h, FIG. 6): less glucose infusion was necessary
- corticosterone response to hypoglycemia ([1]; non-diabetic and diabetic rats, insulin 10 U/kg, antagonist 1500 nmol/kg/h, FIG. 4): augmented to the same extent
- corticosterone response to hypoglycemia ([1]; non-diabetic and diabetic rats, insulin 10 U/kg, antagonist 1500 nmol/kg/h, FIG. 4, listed as SSTR2 antagonist): increases in the corticosterone response
- increase in plasma glucagon induced by insulin, with versus without antagonist ([1]; non-diabetic rats, insulin 10 U/kg, antagonist 1500 nmol/kg/h, FIG. 2): 3 fold
- glucagon secretion [2]: enhances glucagon secretion
- insulin secretion [2]: without affecting insulin secretion

Substance: HFIRWF [AC-178,335, Ac-His-Phe-Ile-Arg-Trp-Phe-NH2]
- Affinity (nM), Units pKi (SSTR-2): 6.8 pKi
